In patent publication US8563516B2, “Foxp3 peptide vaccine” (OncoTherapy Science, Inc., priority 2007, dated 2013):
“Also recorded” adds a separate entry of the source.

Columns and labels:
peptide pulsed T2 cells = experiment: IFN-gamma ELISPOT: CTL line induced with Foxp3-9-252-WT against T2 cells pulsed with substituted peptide; type: cell-based, human; settings: FIG. 7A
Experimental: IFN-gamma ELISPOT assay was performed using CTL line induced with Foxp3-9-252-WT peptide as responder cells and T2 cells pulsed Foxp3-9-252-WT or Foxp3-9-252-9V peptide as stimulator cells, respectively. T2 cells without peptide pulse were prepared as control. […] IFN-gamma ELISA assay was performed using CTL line induced with Foxp3-9-252-WT peptide as responder cells (1×10^5 cells/well) and Foxp3-9-252-WT (-solid circle-), Foxp3-9-252-9V (-open circle-) or HIV-A02 (-solid triangle-) peptide pulsed T2 cells as stimulator cells (1×10^4 cells/well). Peptide pulse of stimulator cells was conducted at 37 degree Celsius for 2 hours in each kind of peptide and peptide concentration.
(§1) To examine the specific CTL activity, IFN-gamma ELISPOT assay and IFN-gamma ELISA were performed. Briefly, peptide-pulsed A24-LCL, T2 cell (1×10^4/well) or the cells endogenously expressing Foxp3 and HLA molecule was prepared as a stimulator cells. Cultured CTL lines in 48 wells were used as a responder cells. IFN-gamma ELISPOT assay and IFN-gamma ELISA were performed under manufacture procedure.
And then the present inventers examined whether peptide-pulsed stimulator cells using these substitutions were recognized by CTLs generated with Foxp3-9-252-WT peptide.

4T1 breast cancer cells = experiment: In vivo antitumor effects of vaccination, 4T1 tumor; parameters: species or system BALB/c mice; settings: 4T1 s.c. day 0, vaccination day 3 and 10, compared with control mice, FIG. 6
Experimental: 1×10^5 4T1 breast cancer cell lines were injected into BALB/c mice on day 0. IFA-conjugated with Foxp3-252_h (-open circle-), Foxp3-252_m (-solid square-), no peptide (-solid triangle-) was injected on day 3 and 10. As control of normal tumor growth, non-vaccinated mice (-x-) were also prepared in this assay.
4T1 cells (1×10^5 per mouse) were injected s.c. into the right flank of BALB/c mice on day 0. Vaccination was done on days 3 and 10 using hFoxp3-252 (KLSAMQAHL: SEQ ID NO: 17) or mFoxp3-252 (KLGAMQAHL: SEQ ID NO: […]) IFA-conjugated peptides.
To examine the antitumor effects with peptide vaccination targeted Foxp3, in vivo therapeutic setting was attempted by using 4T1 tumor cells and BALB/c mice. The 4T1 breast cancer cells were injected s.c. into BALB/c mice on day 0, and then vaccination was done on these mice 3 and 10 days after the tumor challenge.

peptide-pulsed T2 cells = experiment: IFN-gamma ELISPOT on CTLs induced with HLA-A0201 restricted Foxp3 peptides; type: cell-based, human; settings: FIG. 2A/2B/2C
From the text: Monocyte-derived dendritic cells (DCs) were used as antigen-presenting cells (APCs) to induce CTL responses against peptides presented on HLA. DCs were generated in vitro as described elsewhere (Horiguchi S. et al. Cancer Res. 59:2950-6). Specifically, peripheral blood mononuclear cells (PBMCs) isolated from normal volunteer (HLA-A*2402 and/or HLA-A*0201) with Ficoll-Plaque (Pharmacia) solution were separated by adherence to plastic tissue culture dish (Becton Dickinson) so as to enrich them for the monocyte fraction. The monocyte-enriched population was cultured in the presence of 1000 U/ml of GM-CSF (R&D System) and 1000 U/ml of IL-4 (R&D System) in AIM-V medium (Invitrogen) containing 2% heat-inactivated autologous serum (AS). After 7 days in the culture, the cytokine-generated DCs were pulsed with 20 mcg/ml of the synthesized peptides in the presence of 3 mcg/ml of beta2-microglobulin for 4 hrs at 20 degrees C. in AIM-V medium. These peptide-pulsed DCs were then inactivated with mitomycin C (MMC) (30 mcg/ml for 30 mins) and mixed at a 1:20 ratio with autologous CD8+ T cells, obtained by positive selection with CD8 Positive Isolation Kit (Dynal). These cultures were set up in 48-well plates (Corning); each well contained 1.5×10^4 peptide-pulsed DCs, 3×10^5 CD8+ T cells and 10 ng/ml of IL-7 (R&D System) in 0.5 ml of AIM-V/2% AS. Three days later, these cultures were supplemented with IL-2 (CHIRON) to a final concentration of 20 IU/ml. On day 7 and 14, the T cells were further restimulated with the peptide-pulsed autologous DCs. The DCs were prepared each time through the same procedure described above. CTL activity was tested against peptide-pulsed A24LCL cells or T2 cells after the 3rd round of peptide stimulation on day 21.
as §1
Resulting CTLs showing detectable specific CTL activity were shown in FIG. 2A, FIG. 2B and FIG. 2C when performed by IFN-gamma ELISPOT assay.

Sequence: KLSAMQAHL (peptide vaccine) [SEQ ID NO 17]
- IFN-gamma production of Foxp3-9-252-WT induced CTLs against peptide pulsed T2 cells (peptide pulsed T2 cells): produced IFN-gamma
- tumor growth / antitumor effect (4T1 breast cancer cells; listed as Foxp3-252_h): tumor growth apparently reduced; also recorded: Significant difference of tumor growth suppression
- tumor growth / antitumor effect (4T1 breast cancer cells; listed as hFoxp3-252): obviously anti-tumor effects; also recorded: superior to mFoxp3-252 peptide
- IFN-gamma production of CTLs stimulated with peptide, compared with the control (peptide-pulsed T2 cells): potent IFN-gamma production
